Data: patent US9097706B2, “Insect-based ex vivo model for testing blood-brain barrier penetration and method for exposing insect brain to chemical compounds” (ENTOMOPHARM APS, priority 2009, dated 2015)
Where two headings read alike, the source gives them in different places.

Assays:
locust brain barrier = assay: Visual inspection of Evans Blue permeation through the locust brain barrier; assay type: in vitro ADME, Locusta migratoria; conditions: 5 minutes in Evans Blue; neural lamella removed
Experimental: A cut was made through the frontal part of the head of the adult locusta migratoria. Each brain was placed for 5 minutes in a microtiter well containing a mixture of Evans Blue. The neural lamella was removed from the brain.

[1] = test system: grasshopper BBB (locusta migratoria brain in its cuticle shell)
Experimental: 1. […] The insects may be obtained from local suppliers or bred in house. The grasshoppers were reared under crowded conditions at 28° C. and a 12:12 dark:light photocycle and fed fresh grass and bran. Before experiments the grasshoppers were fed ecologically cultivated wheat for two weeks. Animals used are adult males (in some experiments females) between two to four weeks after adult emergence. A cut is made through the frontal part of the locust head comprising the most frontal parts including the antennae, the compound eyes, the brain and all neural connections between the brain and the antennae and the eyes. This preparation in its cuticle shell is placed in a well of a microtitre plate containing the test solution. After various times of exposure the preparation is washed in saline and the brain is dissected under microscope with fine forceps. The neural lamella surrounding the brain is removed in saline and the brain is then […] in saline, centrifuged and the supernatant frozen until analyses. Drug concentration is analysed by HPLC, LC/MSMS or other methods.
(§1) A cut was made through the frontal part of the head of adult female locusta migratoria. Each brain in its cuticle shell was placed in a 0.12 mg/ml mianserin solution for 5 minutes. The brain was prepared in saline and removed from the cuticle shell and three brains were placed in each test tube containing 100 ul distilled H2O. 200 ul ACN was added to each tube and the tubes were placed in a sonicator and the brains were disintegrated by approximately 5 seconds of sonication. The samples containing the disintegrated brains were centrifuged for 5 minutes (10000 g at 4° C.).
as §1, with “shell. The brains were washed in Saline. After wash” for “shell and”, “sonication.” for “sonication. The samples containing the disintegrated brains were centrifuged for 5 minutes (10000 g at 4° C.).”
A cut was made through the frontal part of the head of adult female locusta migratoria. Each brain in its cuticle shell was placed in a 0.12 mg/ml mianserin solution for 5 minutes. The brain was prepared in saline and removed from the cuticle shell. To stain the neural lamella Evans Blue was added and the neural lamella was removed. Three brains were placed in each test tube containing 100 ul distilled H2O. 200 ul ACN was added to each tube and the tubes were placed in a sonicator and the brains were disintegrated by approximately 5 seconds of sonication.
A cut was made through the frontal part of the head of the adult locusta migratoria. Each brain in its cuticle shell was placed in a 0.9 mg/ml mianserin solution for 5 minutes. The brain was prepared in saline and removed from the cuticle shell. Three brains were placed in a test tube containing 100 ul PBS. 200 ul ACN was added to each tube. The tubes were placed in a sonicator and the brains were disintegrated by approximately 5 seconds of sonication.
A cut was made through the frontal part of the head of the adult locusta migratoria. Each brain was placed for 5 minutes in a microtiter well with an approximately 0.95 mg/ml solution of mianserin. To stain the neural lamella Evans Blue was added and the neural lamella was removed. Two brains are placed in each test tube and 100 ul distilled H2O and 200 ul ACN is added. The tubes were placed in a sonicator and the brains were disintegrated by approximately 5 seconds of sonication.
A cut was made through the frontal part of the head of the adult locusta migratoria. […] To stain the neural lamella Evans Blue was added and the neural lamella was removed.

Blattodea BBB = conditions: for average concentration in brain supernatant measured by LCMS: Blattodea
Experimental: A cut was made through the frontal part of the head of the Blattodea. Each brain was placed for 5 minutes in a microtiter well with an approximately 1.0 mg/ml solution of trazodone. To stain the neural lamella Evans Blue was added and the neural lamella was removed. Two brains are placed in each test tube and 50 ul distilled H2O and 100 ul ACN is added. The tubes were placed in a sonicator and the brains were disintegrated by approximately 5 seconds of sonication.

[2] = Locusta migratoria, 5 min, 0.9 mg/ml

## Cc1cc(-c2ccc(/N=N/c3ccc4c(S(=O)(=O)O)cc(S(=O)(=O)O)c(N)c4c3O)c(C)c2)ccc1/N=N/c1ccc2c(S(=O)(=O)O)cc(S(=O)(=O)O)c(N)c2c1O [Evans Blue]
Locust brain barrier
  permeation through the locust brain barrier (visual signs in brain): no significant permeation

## Cn1c(=O)c2c(ncn2C)n(C)c1=O [caffeine]
[1]; approximately 0.78 mg/ml solution, 5 minutes, neural lamella removed, two brains per tube
  average concentration in brain supernatant measured by LCMS: 1533 ng/mL
[1]; conclusion from the examples
  permeation of the grasshopper BBB (in words): permeate the grasshopper BBB to a much larger extent than peripheral acting drugs
Blattodea BBB; approximately 0.1 mg/ml solution, 5 minutes, neural lamella removed, two brains per tube
  average concentration in brain supernatant measured by LCMS: 152 ng/mL
Blattodea BBB; approximately 1.0 mg/ml solution, 5 minutes, neural lamella removed, two brains per tube
  average concentration in brain supernatant measured by LCMS: 1028 ng/mL
Blattodea BBB; conclusion from Examples AB-AG
  permeation of the Blattodea BBB (in words): permeate the Blattodea BBB to a much larger extent than atenolol

## CN1CCN2c3ccccc3Cc3ccccc3C2C1 (stereo not shown) [mianserin]
[1]; Locusta migratoria, 5 min, 0.1 mg/ml
  [with lamella]/[without lamella] ratio: 1.7
[1]; [2]
  [with lamella]/[without lamella] ratio: 2.3
[1]; Locusta migratoria, 5 min, 0.95 mg/ml
  average concentration in brain supernatant measured by LCMS: 1439 ng/mL

## CC(C)NCC(O)COc1cccc2ccccc12 (stereo not shown) [propranolol]
[1]
  permeation of the grasshopper BBB (in words): permeate the grasshopper BBB to a much larger extent than peripheral acting drugs
[1]; Locusta migratoria, 5 min, 0.72 mg/ml
  average concentration in brain supernatant measured by LCMS: 674 ng/mL

## O=c1n(CCCN2CCN(c3cccc(Cl)c3)CC2)nc2ccccn12 [trazodone]
[1]
  permeation of the grasshopper BBB (in words): permeate the grasshopper BBB to a much larger extent than peripheral acting drugs
[1]; [2]
  average concentration in brain supernatant measured by LCMS: 1317 ng/mL
Blattodea BBB
  permeation of the Blattodea BBB (in words): permeate the Blattodea BBB to a much larger extent than atenolol
Blattodea BBB; 5 min, 0.1 mg/ml
  average concentration in brain supernatant measured by LCMS: 127 ng/mL
Blattodea BBB; 5 min, 1 mg/ml
  average concentration in brain supernatant measured by LCMS: 768 ng/mL
